Measured values as given in article PMC4301837, “Aldosterone synthase inhibition: cardiorenal protection in animal disease models and translation of hormonal effects to human subjects” (Journal of Translational Medicine, 2014).
Marks after values point to notes of the source that are not given here.

Legend:
[1] = dogs, ref D. Rigel, personal communication, cited from earlier work
human CYP11B2 = system: human CYP11B2; parameters: method as in PMID 24899257; conditions: cited from earlier work
[2] = system: Ang II-stimulated aldosterone release; parameters: method as in D. Rigel, personal communication; conditions: dogs; ref D. Rigel, personal communication; read-out: EC50, inhibition of Ang II-stimulated aldosterone release; cited from earlier work
[3] = system: ACTH-stimulated aldosterone and corticosterone synthesis; parameters: method as in PMID 20354176; conditions: in vivo rat ACTH stimulation model; previous study; cited from earlier work
[4] = system: dTG rats with pre-established cardiorenal disease; assay: Survival study in older, enalapril-pre-treated dTG rats with established cardiorenal disease; format: in vivo, rat; conditions: male dTG rats, 10 mg/kg/day (40 mg/L in drinking water) from 3 to 8 weeks of age
[5] = system: dTG rats overexpressing human renin and angiotensinogen; assay: Survival study in young dTG rats; format: in vivo, rat
healthy male volunteers [6] = assay: Human safety and tolerability; format: in vivo; conditions: single or multiple doses
[7] = system: ACTH-stimulated aldosterone, cortisol and precursors; assay: Human ACTH (cortisol) stimulation test, multiple-dose phase; format: in vivo
[8] = system: dTG rats overexpressing human renin and angiotensinogen; format: in vivo
healthy male volunteers [9] = assay: Human pharmacodynamics, multiple-dose phase
[10] = dTG rats, LCI699 3–100 mg/kg/day, eplerenone 30 mg/kg/day
[11] = eplerenone 100 mg once daily, ANCOVA mean

N#Cc1ccc([C@H]2CCCc3cncn32)cc1 [FAD286A, reference compound]
oral bioavailability ([1]; 1 mg/kg oral dose): 33% | half-life [1]: 54 to 72 min | IC50 (human CYP11B2; recombinant hamster fibroblasts expressing human CYP11B1 and CYP11B2, read-out: IC50, inhibition of aldosterone synthesis): […] | selectivity factor, inhibition of aldosterone vs cortisol synthesis (human CYP11B2; recombinant hamster fibroblasts): […] | EC50 [2]: 136 nM | selectivity factor by exposure, aldosterone synthase over 11β-hydroxylase [3]: […]

CCOC(=O)[C@H](CCc1ccccc1)N[C@@H](C)C(=O)N1CCC[C@H]1C(=O)O [enalapril, reference compound]
prolongation of median survival by pre-treatment [4]: approximately 4 months

COC(=O)[C@@H]1CC2=CC(=O)CC[C@]2(C)[C@@]23O[C@@H]2C[C@@]2(C)[C@@H](CC[C@@]24CCC(=O)O4)[C@H]13 [eplerenone, reference compound]
maximum effective dose for prolongation of survival ([5]; young dTG rats): 30 mg/kg | doses at which survival was significantly prolonged ([5]; young dTG rats without established cardiorenal disease, P < 0.01): > 10 mg/kg/day | maximum median survival time ([5]; young dTG rats, dose–median survival curves): 8.4 weeks | changes in supine systolic or diastolic blood pressure or heart rate compared with placebo (healthy male volunteers [6]): no consistent changes | effect on ACTH-stimulated 11-DOC levels ([7]; LCI699 0.5 mg, eplerenone 100 mg): no significant effect | effect on cortisol precursors (ACTH-stimulated) ([7]; eplerenone 100 mg and lower doses of LCI699 (0.5, 1 mg), Day 6 or Day 13): no significant effect | increase in ACTH-stimulated peak aldosterone levels ([7]; eplerenone 100 mg, Day 6): 63% | increase in pre-ACTH aldosterone levels 2 h post-dose vs Day −2 ([7]; eplerenone 100 mg, Day 6): 29% | effect on BUN levels ([8]; 30 mg/kg): no significant effect | effect on LV fractional shortening ([8]; 30 mg/kg): no significant effect | effect on LV isovolumic relaxation time to RR (IVRT/RR) ratio ([8]; 30 mg/kg): no significant effect | effect on urine output ([8]; 30 mg/kg): no significant effect | effect on plasma aldosterone concentration ([8]; dTG rats treated 3 to 7 weeks of age, LCI699 3–100 mg/kg/day in drinking water, eplerenone 30 mg/kg/day in chow): had no effect | effect on myocardial cell size ([8]; dTG rats, LCI699 3–100 mg/kg/day, eplerenone 30 mg/kg): reduced but did not normalize | effect on mean arterial pressure [8, 10]: neither LCI699 nor eplerenone normalized arterial pressure | effect on serum potassium [8, 10]: had no effect | effect on urinary albumin excretion [8, 10]: slightly increased | effect on urinary aldosterone excretion [8, 10]: significantly increased | effect on LV weight ([8]; dTG rats, LCI699 3–100 mg/kg/day, eplerenone 30 mg/kg, data not shown): had no effect | Plasma potassium, Δ Day2 vs baseline (Day −1) (healthy male volunteers [9]; [11]): +0.08 mEq/L | Plasma potassium, Δ Day7 vs baseline (Day −1) (healthy male volunteers [9]; [11]): −0.02 mEq/L | Plasma potassium, Δ Day14 vs Day 7 (healthy male volunteers [9]; [11]): −0.09 mEq/L | Plasma sodium, Δ Day2 vs baseline (Day −1) (healthy male volunteers [9]; [11]): −0.64 mEq/L | Plasma sodium, Δ Day7 vs baseline (Day −1) (healthy male volunteers [9]; [11]): +0.31 mEq/L | Plasma sodium, Δ Day14 vs Day 7 (healthy male volunteers [9]; [11]): −0.07 mEq/L | Urinary potassium, Δ Day 1 vs baseline (Day −1) (healthy male volunteers [9]; [11]): +5.2 mEq/24 h | Urinary potassium, Δ Day 7 vs baseline (Day −1) (healthy male volunteers [9]; [11]): +6.4 mEq/24 h | Urinary potassium, Δ Day 14 vs Day 7 (healthy male volunteers [9]; [11]): +3.7 mEq/24 h | Urinary sodium, Δ Day 1 vs baseline (Day −1) (healthy male volunteers [9]; [11]): +53.8‡ mEq/24 h | Urinary sodium, Δ Day 7 vs baseline (Day −1) (healthy male volunteers [9]; [11]): +16.2 mEq/24 h | Urinary sodium, Δ Day 14 vs Day 7 (healthy male volunteers [9]; [11]): −24.0 mEq/24 h | effect on plasma aldosterone concentration (healthy male volunteers [9]; eplerenone 100 mg, Day 1): had no effect | increase in 24 hour urinary aldosterone (healthy male volunteers [9]; eplerenone 100 mg, Day 1): 34% | increase in 24 h urinary aldosterone levels (healthy male volunteers [9]; eplerenone 100 mg, Day 7): 118% | increase in PRA from baseline (healthy male volunteers [9]; eplerenone 100 mg, Day 7): 92% | increase in plasma aldosterone (healthy male volunteers [9]; eplerenone 100 mg, Day 7): 46% | increase in 24 h urinary aldosterone levels (healthy male volunteers [9]; eplerenone 100 mg, Day 14): 161% | increase in PRA (healthy male volunteers [9]; eplerenone 100 mg, Day 14): 130% | increase in plasma aldosterone (healthy male volunteers [9]; eplerenone 100 mg, Day 14): 63%
